Assay results taken from US20080287445A1, “Prokineticin 2 receptor antagonists” (priority 2005, published 2008).
“And” between values parts separate entries of the source, which are not always exact repeats. Equal values may be shown once.

Target: T1, GPR73 (prokineticin 1 receptor) (Homo sapiens, UniProt Q8TCW9)
T1 construct: expressed in transfected cells; host or cells: HEK 293
Assay: PK1 functional assay: Ca2+ mobilization screening for PK1 antagonists on the FLIPR
Type: cell-based
Settings: HEK 293 GPR73 cells, multiple values = multiple testing; for inhibition at 10 µM: HEK293, 10 μM compound, read-out: Ca^2+ Mobilization % Inh @ 10 μM; for IC50: PK1 ligand preparation at its EC50, read-out: Ca^2+ Mobilization IC50; for Ca^2+ Mobilization % Inh @ 10 μM: 10 μM compound
In short: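 HEK293 cells expressing human GPR73 were loaded with Calcium Plus dye, then on FLIPR given compound for 4 min 15 s before PK1 ligand at its predetermined EC50. Baseline-subtracted fluorescence over 1 min 45 s gave percent inhibition versus maximal signal; IC50 fitted.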

T1 sequence (Q8TCW9 whole entry, species assumed): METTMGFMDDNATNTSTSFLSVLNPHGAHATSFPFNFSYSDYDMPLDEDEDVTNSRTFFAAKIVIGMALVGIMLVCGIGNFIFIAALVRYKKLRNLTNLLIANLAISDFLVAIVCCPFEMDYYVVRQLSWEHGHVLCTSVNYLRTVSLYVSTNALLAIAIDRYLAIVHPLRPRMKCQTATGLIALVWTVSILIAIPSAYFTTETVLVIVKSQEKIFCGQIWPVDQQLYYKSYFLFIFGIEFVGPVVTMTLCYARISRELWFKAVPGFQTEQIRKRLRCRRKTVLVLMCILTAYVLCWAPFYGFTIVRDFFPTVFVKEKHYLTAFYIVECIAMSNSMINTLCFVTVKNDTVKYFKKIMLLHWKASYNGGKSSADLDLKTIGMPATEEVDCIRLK

## COc1ccc(Cn2c(=O)nc(NCc3cccnc3N)n(Cc3ccc(OC)c(F)c3)c2=O)cc1 [Cpd 203]
  inhibition at 10 µM: 103%
  IC50: 60 nM

## COc1ccc(Cn2c(=O)nc(NCc3cnc(C)cc3C)n(Cc3ccc(OC)c(F)c3)c2=O)cc1 [Cpd 204]
  inhibition at 10 µM: 102%
  IC50: 68 nM

## COc1ccc(Cn2c(=O)nc(NCc3cccnc3N)n(Cc3ccc(OC)cc3F)c2=O)cc1 [Cpd 205]
  inhibition at 10 µM: 102%
  IC50: 106 nM

## COc1ccc(Cn2c(=O)nc(NCc3cnc(C)cc3C)n(Cc3ccc(OC)cc3F)c2=O)cc1 [Cpd 206]
  inhibition at 10 µM: 102%
  IC50: 46 nM

## COc1ccc(Cn2c(NCc3cnc(C)cc3C)nc(=O)n(Cc3ccc4c(c3)OCO4)c2=O)cc1 [Cpd 207]
  Ca^2+ Mobilization % Inh @ 10 μM: 93%
  inhibition at 10 µM: 92%
  IC50: 461 nM and 471 nM

## Cc1cc(C)c(CNc2nc(=O)n(Cc3ccc4c(c3)OCO4)c(=O)n2Cc2ccc(OC(F)F)cc2)cn1 [Cpd 208]
  inhibition at 10 µM: 73%
  IC50: 1270 nM

## COc1ccc(Cn2c(NCc3cnc(C)cc3C)nc(=O)n(Cc3ccc4c(c3)OCCO4)c2=O)cc1 [Cpd 209]
  inhibition at 10 µM: 51%
  IC50: 7730 nM

## Cc1cc(C)c(CNc2nc(=O)n(Cc3ccc4c(c3)OCCO4)c(=O)n2Cc2ccc(OC(F)F)cc2)cn1 [Cpd 210]
  inhibition at 10 µM: 39%
  IC50: > 10000 nM

## COc1ccc(Cn2c(SCc3cccnc3)cc(=O)n(Cc3ccc(OC)cc3)c2=O)cc1 [Cpd 211, 1,3-Bis-(4-methoxy-benzyl)-6-(pyridin-3-ylmethylsulfanyl)-1H-pyrimidine-2,4-dione]
  inhibition at 10 µM: 52%
  IC50: 4580 nM

## COc1ccc(Cn2c(=O)nc(NCc3c(C)cc(C)nc3N)n(Cc3ccc4c(c3)CC(C)O4)c2=O)cc1 (stereo not shown) [Cpd 212]
  Ca^2+ Mobilization % Inh @ 10 μM: 99%
  inhibition at 10 µM: 103%
  IC50: 21 nM and 50 nM

## COc1ccc(Cn2c(NCc3c(C)cc(C)nc3N3CCCCC3)nc(=O)n(Cc3ccc(OC)cc3)c2=O)cc1 [Cpd 213]
  inhibition at 10 µM: 45%
  IC50: > 10000 nM

## COc1ccc(Cn2c(CCc3cnccc3N)cc(=O)n(Cc3ccc(OC)cc3)c2=O)cc1 [Cpd 214]
  inhibition at 10 µM: 53%
  IC50: 7160 nM

## COc1ccc(Cn2c(NCCc3ccncc3)nc(=O)n(Cc3ccc(OC)cc3)c2=O)cc1 [Cpd 215]
  Ca^2+ Mobilization % Inh @ 10 μM: 104% and 68%
  IC50: 500 nM and 2780 nM

## COc1ccc(Cn2c(NCc3cnc(C)cc3C)nc(=O)n(Cc3ccc4c(c3)nnn4C)c2=O)cc1 [Cpd 216]
  inhibition at 10 µM: 80%
  IC50: 1060 nM

## COc1ccc(Cn2c(NCc3cnc(C)cc3C)nc(=O)n(Cc3ccc4snnc4c3)c2=O)cc1 [Cpd 217]
  inhibition at 10 µM: 81%
  IC50: 1010 nM

## COc1ccc(Cn2c(NCc3cnc(C)cc3C)nc(=O)n(Cc3ccc(OC)c(F)c3)c2=O)cc1 [Cpd 218]
  inhibition at 10 µM: 94%
  IC50: 104 nM

## Cc1cc(C)c(CNc2nc(=O)n(Cc3ccc4c(c3)OCO4)c(=O)n2Cc2ccc(OC(F)F)cc2)c(N)n1 [Cpd 219]
  Ca^2+ Mobilization % Inh @ 10 μM: 97%
  inhibition at 10 µM: 94%
  IC50: 136 nM and 158 nM

## COc1ccc(Cn2c(NCc3c(C)cc(C)nc3N)nc(=O)n(Cc3ccc4c(c3)OCO4)c2=O)cc1 [Cpd 220]
  inhibition at 10 µM: 98%
  IC50: 43 nM

## Cc1cc(C)c(CNc2nc(=O)n(Cc3ccc4c(c3)nnn4C)c(=O)n2Cc2ccc(OC(F)F)cc2)c(N)n1 [Cpd 221]
  Ca^2+ Mobilization % Inh @ 10 μM: 96%
  inhibition at 10 µM: 98%
  IC50: 45 nM and 72 nM

## COc1ccc(Cn2c(NCc3c(C)cc(C)nc3N)nc(=O)n(Cc3ccc4c(c3)nnn4C)c2=O)cc1 [Cpd 222, 6-[(2-Amino-4,6-dimethyl-pyridin-3-ylmethyl)-amino]-1-(4-methoxy-benzyl)-3-(1-methyl-1H-benzotriazol-5-ylmethyl)-1H-[1,3,5]triazine-2,4-dione]
  inhibition at 10 µM: 98%
  IC50: 60 nM

## COc1ccc(Cn2c(CCc3cccc(N)n3)cc(=O)n(Cc3ccc(OC)cc3)c2=O)cc1 [Cpd 223, 6-[2-(6-Amino-pyridin-2-yl)-ethyl]-1,3-bis-(4-methoxy-benzyl)-1H-pyrimidine-2,4-dione]
  inhibition at 10 µM: 53%
  IC50: 5680 nM
